Data taken from patent US9499484B2, “Indole, indoline derivatives, compositions comprising them and uses thereof” (priority 2012, dated 2016).
Where a name gives a salt, the structure may show the parent alone. Read-outs that look alike come from different tables or passages of the source.

Legend:
[1] = tested on: ChE (AChE, BuChE) in plasma, muscle, spleen, brain; details: after ip and or oral administration in mice
Experimental: E. Acetylcholinesterase (AChE) and Butylcholinesterase (BuChE) Inhibition Ex Vivo
Compounds of the invention or saline were administrated by intraperitoneal (ip) injection or gavage to groups of 6-7 male ICR or Balb C mice (5-6 weeks of age). The mice were sacrificed 15, 30, 60 or 120 min after drug administration and the brain (minus cerebellum), spleen, and muscle were rapidly removed, weighed and put on ice. Blood was also collected in heparinised tubes, centrifuged at 14000 rpm at room temperature for 4 mM to provide plasma. Phosphate buffer pH 7 was added to each tissue to produce concentrations of 1 mg/mL for brain and spleen and 8 mg/mL for muscle. The tissues were homogenised in cold phosphate buffer pH 7 containing 0.1% Triton and centrifuged at 14000 rpm. Aliquots of plasma and the supernatant of all tissues were incubated with AcTh or BuTh and DTNB in phosphate buffer pH 7 and the rate of development of the yellow colour was measured as described above. Enzyme activity was measured for each time and drug concentration and percent inhibition of the AChE or BuChE activity was calculated by comparison with that of control mice injected with saline. Results are represented as p moles acetylthiocholine or butythiocholine hydrolysed/min/gm tissue.

Radical scavenging, Sin1 = format: biochemical; details: mean ± SD, three independent experiments
BuChE = target: T1, BuChE (UniProt P81908); format: biochemical, human or equine serum; details: read-out: IC50 BuChE 120 min; Table 3; 120 min incubation
T1 construct: 120 min incubation; BuChE IC50
Experimental: (§1) B. Measurement of Acetylcholinesterase (AChE) and Butylcholinesterase (BuChE) Inhibition In Vitro
(§2) The enzyme was incubated at 37° C. with 6-10 concentrations of the compounds tested and samples were collected at 15, 30, 60 and 120 min Aliquots were transferred to an Elisa multiscan microplate reader (Labsystems) at 15-60 sec time intervals for the determination of residual AChE activity, with Ascent PC software. […] The % inhibition of AChE by each concentration was calculated by comparison with the activity of the enzyme in the absence of drug. […] BuChE-inhibitory activity was determined as described above using BuChE (Sigma Israel) with butylthiocholine iodide (BuTh) 0.075M as a substrate.

[2] = tested on: rat cardiac myoblasts (H9c2); experiment: Protection against H2O2-induced cell death in cardiomyocytes, Alamar Blue; format: cell-based; details: concentration(s) giving >50% protection
Experimental: C. Measurement of Protective Activity Against Oxidative Stress in Cell Cultures
Compounds of the invention were tested for their potential to protect against cell death induced by oxidative stress in a cell line derived from rat cardiac myoblasts (H9c2) (Hescheler et al., 1991). Cells were cultured in Dulbecco's Modified Eagle's Medium (DMEM), 4500 mg/L D-glucose with 10% foetal calf serum (FCS), 10000 U/mL penicillin, […] streptomycin and 25 μg/mL Amphotericin B at 37° C. with 95% air and 5% CO2. One day prior to the measurement, cells were seeded in 96 well-plates at a density of 5,000 cells/well and incubated with 100 μM H2O2 for 1 h. […] Cells were incubated with different compounds of the invention in several concentrations ranging from 0.0001-100 μM, for 1, 4 or 7 h prior to addition of H2O2. Cell viability was measured by means of Alamar Blue (AbD Serotec, BUF012A). In order to compare the protective effect of the compounds this degree of cell death was normalized to 100% in each experiment. The effect of the drugs is expressed as percent reduction of this value.

[3] = Radical scavenging, glucose oxidase/luminol luminescence; format: biochemical; details: concentration reducing luminescence/radical by 50%; mean ± SD, three independent experiments
Experimental: A. Measurement of Radical Scavenging
A mixture comprising glucose oxidase (GO), luminol, sodium selenite [IV] ([…]) and cobalt [II] (Co^+2) all in Hank's Balance Salt Solution (HBSS) was used (Ginsburg et al, 2004). The production of H2O2 produces a burst of luminescence within 30-60 sec, which lasts for 7-10 min. The luminescence involves oxidation of SEL+5 to it SEL+6 and also the generation of oxidants, which are catalyzed by Co^+2. This method mimics infection and inflammation conditions in which there is an accumulation of several oxidant species. This method provides a source of several radicals. Reduction in luminescence by the compounds is due to their ability to sequester radicals and was measured after addition of several concentrations of each compound. The concentration of each compound that reduced the luminescence by 50% was calculated.

TNF-α, RAW 264.7 cells = experiment: TNF-α reduction in LPS-stimulated RAW 264.7 macrophages; format: cell-based, mouse
[4] = tested on: TNF-α, BV2 mouse microglial cells; experiment: TNF-α reduction in LPS-stimulated BV2 microglia; format: cell-based; details: for Reduction in TNF-α levels, BV2 Microglia range: concentration range, None = no reduction up till 100 nM
Experimental: (§3) The BV2 mouse microglial cells were created by infecting primary mouse microglia with v-raf/v-myc oncogen-carrying retrovirus and donated by Dr. Sigal Fleisher—Berkovich (Ben-Gurion University of the Negev). The cells were cultured in RPMI 1640 containing 0.4 mM L-Glutamine, 10% FCS, 100 units/ml penicillin, 100 μg/ml streptomycin and maintained in a humidified incubator at 37° C. with 5% CO2. For measurement of the effect of compounds on the release of NO the cells were seeded in a density of 80,000 cells/ml and confluence of about 60%, and incubated with test compounds (in the absence of FCS) for […] All the medium was removed and fresh medium containing FCS and LPS (10 μg/ml) added and the cells maintained at 37° C. for 24 h. The release of NO into the medium was determined by measurement of nitrite levels using Griess reagent reaction. For measurement of protein levels of cytokines cells were seeded in a density of 80,000 and incubated with test compounds (in the absence of FCS) and then with LPS as described above. The medium was centrifuged and supernatants collected after 6 h for TNF-α (Biolegend) and after 20 h for IL-6 (Biolegend).

[5] = tested on: NO, BV2 mouse microglial cells; experiment: NO reduction in LPS-stimulated BV2 microglia; format: cell-based; details: for Reduction in NO levels by at >20%, BV2 Microglia range: concentration range, None = no reduction up till 100 nM
Experimental: as §3

NO, RAW 264.7 cells = experiment: NO reduction in LPS-stimulated RAW 264.7 macrophages; format: cell-based, mouse
AChE = target: T2, AChE (UniProt P23795); format: biochemical, human or bovine erythrocytes; details: Table 3; 120 min incubation; read-out: IC50 AChE 120 min
T2 sequence (P23795 1-613): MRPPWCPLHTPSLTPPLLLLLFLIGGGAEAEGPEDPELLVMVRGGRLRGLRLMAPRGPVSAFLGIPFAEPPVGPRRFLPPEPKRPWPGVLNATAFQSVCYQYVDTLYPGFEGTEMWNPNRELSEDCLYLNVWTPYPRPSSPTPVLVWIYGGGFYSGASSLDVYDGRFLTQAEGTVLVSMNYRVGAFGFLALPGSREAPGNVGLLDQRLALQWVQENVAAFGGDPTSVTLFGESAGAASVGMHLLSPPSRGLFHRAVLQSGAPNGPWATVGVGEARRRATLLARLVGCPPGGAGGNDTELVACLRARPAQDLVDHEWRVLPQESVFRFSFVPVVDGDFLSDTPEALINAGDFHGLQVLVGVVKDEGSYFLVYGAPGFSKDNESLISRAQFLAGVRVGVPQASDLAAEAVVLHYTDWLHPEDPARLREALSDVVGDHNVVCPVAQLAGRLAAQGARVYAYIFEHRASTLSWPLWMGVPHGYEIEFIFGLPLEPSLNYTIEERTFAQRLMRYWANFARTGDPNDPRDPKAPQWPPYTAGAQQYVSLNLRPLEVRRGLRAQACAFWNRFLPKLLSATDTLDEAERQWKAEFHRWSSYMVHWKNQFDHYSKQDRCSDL
Experimental: as §1, §2

[6] = cells in μM, no effect ≦ 100 μM given as >100
[7] = Mus musculus, RAW264.7, 6 h, read-out: Reduction in TNF-α levels, RAW Macrophages % peak reduction
[8] = concentration range; None = no reduction up till 100 nM

Compound: COC(=O)CCC1CNc2cccc(OC(=O)N(C)c3ccc(OC)cc3)c21 (stereo not drawn) [AN-819, 3-(3-methoxy-3-oxopropyl)-4-(((4-methoxyphenyl)(methyl)carbamoyl)oxy) indolin-1-ium hydrochloride]
- ChE inhibition in plasma, muscle, and spleen [1]: inhibited ChE
- IC50 (Radical scavenging, Sin1): 3.18 ± 0.2 µM
- IC50 (BuChE): 4.6 µM
- Cardiomyocte cell line Conc′ >50% protection H2O2 Alamar blue ([2]; cells in nM): 0.001 to 1 nM
- IC50 [3]: 19 ± 0.6 µM

Compound: COC(=O)CCC1CNc2cccc(O)c21 (stereo not drawn) [AN-832, Methyl 3-(4-hydroxyindolin-3-yl)propanoate hydrochloride]
- inhibition of the level of TNF-α induced in RAW cells by LPS (FIG. 3) (TNF-α, RAW 264.7 cells): inhibition
- Emax (TNF-α, RAW 264.7 cells; Mus musculus, RAW264.7, 6 h; read-out: Reduction in TNF-α levels, RAW Macrophages % peak reduction): 39.2 ± 2.6%
- Reduction in TNF-α levels, BV2 Microglia % peak reduction [4]: 38.2 ± 3.2%
- Reduction in TNF-α levels, BV2 Microglia range [4]: 10^−1-100 nM
- IC50 (Radical scavenging, Sin1): 3.54 ± 0.21 µM
- Reduction in NO levels by at >20%, BV2 Microglia range [5]: None
- Emax (NO, RAW 264.7 cells; Mus musculus, RAW264.7, 24 h; read-out: Reduction in NO levels, RAW Macrophages % peak reduction): 46.1 ± 3%
- IC50 [3]: 0.67 ± 0.05 µM

Compound: CCOC(=O)CCC1CNc2cccc(OC(=O)N(C)CC)c21.O=C(O)CC(O)(CC(=O)O)C(=O)O (stereo not drawn) [AN-871]
- Cardiomyocte cell line Conc′ >50% protection H2O2 Alamar blue [2, 6]: no effect ≦ 100 μM

Compound: CCN(C)C(=O)Oc1ccc2c(c1)NCC2CCC(=O)O (stereo not drawn) [AN-681, 3-(6-(Ethyl(methyl)carbamoyloxy)indolin-3-yl) propanoic acid hydrochloride]
- Emax (TNF-α, RAW 264.7 cells; [7]): 29.2 ± 5.6%
- Reduction in TNF-α levels, RAW Macrophages range (TNF-α, RAW 264.7 cells; [8]): 0.1 to 100 nM
- Reduction in TNF-α levels, BV2 Microglia range [4]: None
- Reduction in NO levels by at >20%, BV2 Microglia range [5]: None
- Emax (NO, RAW 264.7 cells; Mus musculus, RAW264.7, 24 h, read-out: Reduction in NO levels, RAW Macrophages % peak reduction): 50.1 ± 4.1%
- Reduction in NO levels by at >20%, RAW Macrophages range (NO, RAW 264.7 cells; [8]): 10^−1-100 nM
- IC50 (BuChE): 10 µM
- IC50 [3]: 1.14 ± 0.09 µM

Compound: CCN(C)C(=O)Oc1cccc2c1C(CCC(=O)OC)CN2 (stereo not drawn) [AN-827, 3-(2-(Methoxycarbonyl)ethyl)indolin-4-yl ethylmethylcarbamate hydrochloride]
- Emax (TNF-α, RAW 264.7 cells; [7]): 30 ± 3%
- Reduction in TNF-α levels, RAW Macrophages range (TNF-α, RAW 264.7 cells; [8]): 10^−1-100 nM
- Reduction in TNF-α levels, BV2 Microglia % peak reduction [4]: 38.5 ± 3.2%
- Reduction in TNF-α levels, BV2 Microglia range [4]: 10^−1-100 nM
- ChE inhibition in plasma, muscle, and spleen [1]: inhibited ChE
- IC50 (Radical scavenging, Sin1): 4.55 ± 0.48 µM
- IC50 (BuChE): 0.3 µM
- IC50 [3]: 1.46 ± 0.05 µM

Compound: COC(=O)CCC1CN(C)c2cc(OC(=O)N(C)c3ccc(OC)cc3)ccc21 (stereo not drawn) [AN-687, Methyl 3-(6-((4-methoxyphenyl)(methyl)carbamoyloxy)-1-methylindolin-3-yl)propanoate hydrochloride]
- IC50 (BuChE): 372 µM
- Cardiomyocte cell line Conc′ >50% protection H2O2 Alamar blue [2, 6]: 100 to 10000 nM
- IC50 [3]: 2.24 ± 0.03 µM

Compound: COC(=O)CCC1CN(C)c2cccc(O)c21.Cl (stereo not drawn) [AN-833, Methyl 3-(4-hydroxy-1-methylindolin-3-yl)propanoate hydrochloride]
- Cardiomyocte cell line Conc′ >50% protection H2O2 Alamar blue [2, 6]: no effec ≦ 100 μM
- IC50 [3]: 0.45 ± 0.03 µM

Compound: CCCCN(C)C(=O)Oc1ccc2c(c1)NCC2CCC(=O)OC (stereo not drawn) [AN-677, 3-(2-(Methoxycarbonyl)ethyl)-1-indoline-6-yl butylmethylcarbamate hydrochloride]
- IC50 (BuChE): 404 µM
- IC50 (AChE): 62.3 µM
- Cardiomyocte cell line Conc′ >50% protection H2O2 Alamar blue ([2]; cells in nM): 1 to 10 nM
- IC50 [3]: 24.1 ± 0.18 µM

Compound: CCN(C)C(=O)Oc1cccc2c1C(CCC(=O)O)CN2 (stereo not drawn) [AN-850, hydrochloride]
- Reduction in TNF-α levels, RAW Macrophages range (TNF-α, RAW 264.7 cells; [8]): None
- Reduction in TNF-α levels, BV2 Microglia % peak reduction [4]: 30.5 ± 0.6%
- Reduction in TNF-α levels, BV2 Microglia range [4]: 10^−3-100 nM
- ChE inhibition in plasma, muscle, and spleen [1]: inhibited ChE
- Reduction in NO levels, BV2 Microglia % peak reduction [5]: 37.6 ± 5.0%
- Reduction in NO levels by at >20%, BV2 Microglia range [5]: 10^−2-100 nM
- IC50 (BuChE): 0.3 µM
- IC50 (AChE): 19 µM
- IC50 [3]: 1.59 ± 0.39 µM

Compound: O=C(O)CCC1CNc2cccc(O)c21 (stereo not drawn) [AN-834, 3-(4-hydroxyindolin-3-yl)propanoic acid hydrochloride]
- Cardiomyocte cell line Conc′ >50% protection H2O2 Alamar blue ([2]; cells in nM): 0.1 to 10 nM
- IC50 [3]: 1.44 ± 0.04 µM

Compound: COC(=O)CCC1CNc2cc(OC(=O)N(C)c3ccc(OC)cc3)ccc21 (stereo not drawn) [AN-685, Methyl 3-(6-((4-methoxyphenyl)(methyl)carbamoyloxy)indolin-3-yl)propanoate hydrochloride]
- IC50 (BuChE): 54 µM
- Cardiomyocte cell line Conc′ >50% protection H2O2 Alamar blue ([2]; cells in nM): 0.001 to 0.1 nM
- IC50 [3]: 3.41 ± 0.02 µM

Compound: CCCCN(C)C(=O)Oc1ccc2c(c1)N(C)CC2CCC(=O)OC (stereo not drawn) [AN-691, Methyl 3-(6-(butyl(methyl)carbamoyloxy)-1-methylindolin-3-yl)propanoate hydrochloride]
- IC50 (BuChE): 66.8 µM
- Cardiomyocte cell line Conc′ >50% protection H2O2 Alamar blue [2, 6]: 100000 nM
- IC50 [3]: 6.27 ± 0.05 µM

Compound: CCN(C)C(=O)Oc1cccc2[nH]cc(CCN)c12.Cl [AN-886, 2-(4-((ethyl(methyl)carbamoyl)oxy)-1H-indol-3-yl)ethanaminium hydrochloride]
- Cardiomyocte cell line Conc′ >50% protection H2O2 Alamar blue [2, 6]: no effect ≦ 100 μM
